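Briefly, cells in 96-well plates were exposed to five compound concentrations for 48 h, and endpoints were estimated by linear interpolation. The concentration for 50% growth inhibition is given as GI50.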 The source made the active and inactive calls. No stated cut-off is given here; in the data, active = GI50 up to about 1.1 µM and inactive = higher.
Tests used:
Assay in all cases: NCI-60 cell line screen, 48 h
SN12C = tested on: SN12C
SF-539 = tested on: SF-539
A498 = tested on: A498
NCI-H226 = tested on: NCI-H226
SK-OV-3 = tested on: SK-OV-3
SF-295 = tested on: SF-295
786-0 = tested on: 786-0
OVCAR-8 = tested on: OVCAR-8
MOLT-4 = tested on: MOLT-4
A549 = tested on: A549
SW-620 = tested on: SW-620
K562 = tested on: K562
NCI-H460 = tested on: NCI-H460
HT-29 = tested on: HT-29
COLO 205 = tested on: COLO 205
KM12 = tested on: KM12
RPMI-8226 = tested on: RPMI-8226
M14 = tested on: M14

Measured: GI50

CCN(CC)c1c(C(=O)/C=C/c2ccc(OC)cc2)c(-c2ccccc2)nn(C)c1=O
inactive: SN12C 21 µM | SF-539 17.1 µM | A498 20.9 µM | NCI-H226 16.1 µM | SK-OV-3 36 µM | SF-295 21.5 µM | 786-0 14.1 µM | OVCAR-8 22.2 µM | MOLT-4 2.67 µM | A549 12 µM | SW-620 26.5 µM | K562 9.06 µM | NCI-H460 7.83 µM | HT-29 9.51 µM | COLO 205 3.87 µM | KM12 12.7 µM

COC(=O)C(C(=O)C(=O)Nc1cccc(OC)c1)c1cnc2ccccc2n1 (centres undefined)
inactive: SN12C > 100 µM | RPMI-8226 > 100 µM | SF-539 > 100 µM | A498 > 100 µM | NCI-H226 > 100 µM | SK-OV-3 > 100 µM | SF-295 > 100 µM | 786-0 > 100 µM | OVCAR-8 > 100 µM | MOLT-4 > 100 µM | A549 66.8 µM | SW-620 > 100 µM | K562 > 100 µM | NCI-H460 > 100 µM | HT-29 > 100 µM | COLO 205 > 100 µM | KM12 > 100 µM | M14 > 100 µM

CC(C)(Oc1ccc2c(=O)cc(-c3ccccc3)oc2c1)C(=O)Nc1c(Cl)cccc1Cl
inactive: RPMI-8226 47.8 µM | SF-539 > 100 µM | A498 > 100 µM | SK-OV-3 > 100 µM | SF-295 > 100 µM | 786-0 97.1 µM | OVCAR-8 29.4 µM | MOLT-4 76.4 µM | A549 67.1 µM | SW-620 > 100 µM | K562 12.1 µM | NCI-H460 > 100 µM | HT-29 > 100 µM | KM12 79.1 µM | M14 > 100 µM

COC(=O)c1ccc(Cc2ccc(C(=O)OC)o2)o1
inactive: SN12C > 378 µM | RPMI-8226 > 378 µM | SF-539 > 378 µM | NCI-H226 > 378 µM | SK-OV-3 > 378 µM | SF-295 > 378 µM | 786-0 > 378 µM | OVCAR-8 > 378 µM | MOLT-4 > 378 µM | A549 > 378 µM | SW-620 > 378 µM | K562 > 378 µM | NCI-H460 > 378 µM | HT-29 > 378 µM | COLO 205 > 378 µM | KM12 > 378 µM

c1ccc(-c2[nH]c(-c3ccccc3)c(-c3cnccn3)c2-c2cnccn2)cc1
inactive: SN12C > 100 µM | RPMI-8226 82.6 µM | SF-539 > 100 µM | A498 > 100 µM | NCI-H226 > 100 µM | SK-OV-3 > 100 µM | SF-295 > 100 µM | 786-0 > 100 µM | OVCAR-8 > 100 µM | MOLT-4 > 100 µM | A549 > 100 µM | SW-620 > 100 µM | K562 > 100 µM | NCI-H460 > 100 µM | HT-29 91.2 µM | COLO 205 > 100 µM | KM12 30.3 µM | M14 > 100 µM

Clc1ccc(CN2COc3c(cc(Cl)c4cccnc34)C2)cc1
inactive: SN12C 4.23 µM | RPMI-8226 1.16 µM | SF-539 2.03 µM | A498 12.1 µM | NCI-H226 4.06 µM | SK-OV-3 2.77 µM | SF-295 2.52 µM | 786-0 2.74 µM | OVCAR-8 2.04 µM | MOLT-4 1.7 µM | A549 2.39 µM | SW-620 2.94 µM | K562 1.52 µM | NCI-H460 2.29 µM | HT-29 11.9 µM | COLO 205 16.2 µM | KM12 2.37 µM | M14 1.68 µM

Nc1nc2c(nnn2C2C=C(CO)C(O)C2O)c(=O)[nH]1 (centres undefined)
inactive: SN12C 94.4 µM | SF-539 > 100 µM | A498 > 100 µM | NCI-H226 > 100 µM | SK-OV-3 > 100 µM | SF-295 > 100 µM | 786-0 68.5 µM | OVCAR-8 > 100 µM | MOLT-4 42.5 µM | A549 > 100 µM | SW-620 66.4 µM | K562 > 100 µM | NCI-H460 > 100 µM | HT-29 > 100 µM | COLO 205 > 100 µM | KM12 > 100 µM | M14 > 100 µM

N#CC(NNC(=O)Cc1ccccc1)c1cccc(O)c1 (centres undefined)
inactive: SN12C > 100 µM | RPMI-8226 > 100 µM | SF-539 > 100 µM | NCI-H226 > 100 µM | SK-OV-3 > 100 µM | SF-295 > 100 µM | 786-0 > 100 µM | OVCAR-8 > 100 µM | MOLT-4 > 100 µM | A549 > 100 µM | SW-620 > 100 µM | K562 > 100 µM | NCI-H460 > 100 µM | HT-29 > 100 µM | COLO 205 > 100 µM | KM12 > 100 µM | M14 > 100 µM

Cc1ccc(Nc2ccc(Nc3ccc(C)cc3)c3c2C(=O)c2c(O)ccc(O)c2C3=O)cc1
inactive: SN12C > 100 µM | RPMI-8226 > 100 µM | SF-539 66.2 µM | A498 > 100 µM | SK-OV-3 > 100 µM | SF-295 > 100 µM | 786-0 > 100 µM | OVCAR-8 > 100 µM | MOLT-4 > 100 µM | A549 > 100 µM | SW-620 > 100 µM | K562 > 100 µM | NCI-H460 > 100 µM | COLO 205 > 100 µM | KM12 > 100 µM | M14 > 100 µM

Oc1ncnc2c1CCCN2
inactive: SN12C > 100 µM | RPMI-8226 > 100 µM | SK-OV-3 > 100 µM | SF-295 > 100 µM | 786-0 > 100 µM | OVCAR-8 > 100 µM | MOLT-4 > 100 µM | A549 > 100 µM | SW-620 > 100 µM | K562 > 100 µM | HT-29 > 100 µM | COLO 205 > 100 µM | KM12 > 100 µM | M14 > 100 µM

COC(=O)C(=O)C(C(=O)C1=NS(=O)(=O)c2cc(S(N)(=O)=O)c(Cl)cc2N1)c1nc2ccc(C(=O)c3ccccc3)cc2nc1O (centres undefined)
inactive: SN12C > 100 µM | RPMI-8226 > 100 µM | SF-539 90.6 µM | A498 51.5 µM | NCI-H226 > 100 µM | SF-295 72.4 µM | 786-0 > 100 µM | OVCAR-8 59 µM | MOLT-4 48.6 µM | A549 > 100 µM | SW-620 > 100 µM | K562 40 µM | NCI-H460 > 100 µM | HT-29 > 100 µM | COLO 205 > 100 µM | KM12 67.6 µM | M14 > 100 µM

CN1CC(=O)N(C)c2ncn(Cc3ccccc3)c2C1=O
inactive: SN12C > 100 µM | RPMI-8226 > 100 µM | SF-539 > 100 µM | A498 > 100 µM | SK-OV-3 > 100 µM | SF-295 > 100 µM | 786-0 > 100 µM | OVCAR-8 > 100 µM | MOLT-4 > 100 µM | A549 > 100 µM | SW-620 > 100 µM | K562 > 100 µM | NCI-H460 > 100 µM | HT-29 > 100 µM | COLO 205 > 100 µM | KM12 > 100 µM | M14 > 100 µM

Source: ChEMBL document CHEMBL1201862, “PubChem BioAssay data set” (2004)
